Results published in patent US9493434B2, “Substituted indenes as medicaments” (LABORATORIOS DEL DR. ESTEVE S.A., priority 2012, dated 2016).
Where a name gives a salt, the structure may show the parent alone.

Target: T1, σ1-receptor (Cavia porcellus, UniProt Q60492)
T1 construct: Guinea pig brains were homogenized in 10 vols; (w/v) of Tris-HCl 50 mM 0.32 M sucrose, pH 7.4; from tissue; host or cells: guinea pig brain membranes
Test: σ1-receptor binding assay, [3H]-(+)-pentazocine, guinea pig brain membranes
Details: radioligand [3H]-(+)-pentazocine 5.0 nM, 150 min at 37° C., nonspecific binding with 1 μM haloperidol
Experimental: Brain membrane preparation and binding assays for the σ1-receptor were performed as described (DeHaven-Hudkins, D. L., L. C. Fleissner, and F. Y. Ford-Rice, 1992, Characterization of the binding of [^3H](+)pentazocine to […] recognition sites in guinea pig brain, Eur. J. Pharmacol. 227, 371-378) with some modifications. Guinea pig brains were homogenized in 10 vols. (w/v) of Tris-HCl 50 mM 0.32 M sucrose, pH 7.4, with a Kinematica Polytron PT 3000 at 15000 r.p.m. for 30 s. The homogenate was centrifuged at 1000 g for 10 min at 4° C. and the supernatants collected and centrifuged again at 48000 g for 15 min at 4° C. The pellet was resuspended in 10 volumes of Tris-HCl buffer (50 mM, pH 7.4), incubated at 37° C. for 30 min, and centrifuged at 48000 g for 20 min at 4° C. Following this, the pellet was re-suspended in fresh Tris-HCl buffer (50 mM, pH 7.4) and stored on ice until use.
The radioligand used was [^3H]-(+)-pentazocine at 5.0 nM and the final volume was 200 μl. The incubation was initiated with the addition of 100 μl of membrane at a final tissue concentration of approximately 5 mg tissue net weight/mL and the incubation time was 150 m. at 37° C. After incubation, the membranes were collected onto pretreated glass fiber filterplate (MultiScreen-FC, Millipore), with polyethylenimine 0.1%. The filters were washed two times with 200 μl of washing buffer (50 mM Tris CI, pH=7.4) and then 25 μl of Ecoscint H liquid scintillation cocktail were added. Microplates were allowed to set for several hours and then quantified by liquid scintillation spectrophotometry (1450 Microbeta, Wallac). Nonspecific binding was determined with 1 μM haloperidol.

T1 sequence (Q60492 whole entry): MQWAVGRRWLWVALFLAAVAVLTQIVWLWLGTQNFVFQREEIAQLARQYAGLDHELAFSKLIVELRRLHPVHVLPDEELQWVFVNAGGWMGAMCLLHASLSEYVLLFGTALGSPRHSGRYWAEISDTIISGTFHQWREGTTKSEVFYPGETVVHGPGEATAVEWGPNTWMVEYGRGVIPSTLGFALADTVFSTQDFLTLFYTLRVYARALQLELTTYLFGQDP

Row | Structure (SMILES) | Ki [nM]
1 | C1=C(CCN2CCOCC2)c2cccc(-c3ccccc3)c2C1 [Compound 1, 4-(2-(7-phenyl-1H-inden-3-yl)ethyl)morpholine maleate] | 3
2 | C1=C(CCN2CCOCC2)c2cccc(-c3ccncc3)c2C1 [Compound 3, 4-(2-(7-(pyridin-4-yl)-1H-inden-3-yl)ethyl)morpholine maleate] | 47
3 | C1=C(CCN2CCN(c3ccccc3)CC2)c2cccc(-c3ccccc3)c2C1 [Compound 6, 1-phenyl-4-(2-(7-phenyl-1H-inden-3-yl)ethyl)piperazine maleate] | 31
4 | Clc1cccc(N2CCN(CCC3=CCc4c3cccc4-c3ccccc3)CC2)c1 [Compound 7, 1-(3-chlorophenyl)-4-(2-(7-phenyl-1H-inden-3-yl)ethyl)piperazine maleate] | 63
5 | CC1=C(CCN2CCOCC2)c2cccc(-c3ccccc3)c2C1 [Compound 11, 4-(2-(2-methyl-7-phenyl-1H-inden-3-yl)ethyl)morpholine maleate] | 28
6 | CC1=C(CCN2CCN(C)CC2)c2cccc(-c3ccccc3)c2C1 [Compound 12, 1-methyl-4-(2-(2-methyl-7-phenyl-1H-inden-3-yl)ethyl)piperazine maleate] | 51
7 | Fc1ccc(-c2cccc3c2CC=C3CCN2CCOCC2)cc1 [Compound 13, 4-(2-(7-(4-fluorophenyl)-1H-inden-3-yl)ethyl)morpholine maleate] | 4
8 | COc1ccc(-c2cccc3c2CC=C3CCN2CCOCC2)cc1 [Compound 21, 4-(2-(7-(4-methoxyphenyl)-1H-inden-3-yl)ethyl)morpholine maleate] | 53
9 | COc1ccc(-c2cccc3c2CC=C3CCN2CCN(C)CC2)cc1 [Compound 22, 1-(2-(7-(4-methoxyphenyl)-1H-inden-3-yl)ethyl)-4-methylpiperazine maleate] | 129
10 | CN1CCN(CCC2=CCc3c2cccc3-n2ccnn2)CC1 [Compound 27, 1-(2-(7-(1H-1,2,3-triazol-1-yl)-1H-inden-3-yl)ethyl)-4-methylpiperazine maleate] | 185
11 | Cc1noc(C)c1-c1cccc2c1CC=C2CCN1CCN(C)CC1 [Compound 28, 3,5-dimethyl-4-(3-(2-(4-methylpiperazin-1-yl)ethyl)-1H-inden-7-yl)isoxazole maleate] | 36
12 | CN1CCN(CCC2=CCc3c2cccc3-c2cncnc2)CC1 [Compound 29, 5-(3-(2-(4-methylpiperazin-1-yl)ethyl)-1H-inden-7-yl)pyrimidine maleate] | 168
13 | CN1CCN(CCC2=CCc3c2cccc3-c2ccnc(F)c2)CC1 [Compound 33, 1-(2-(7-(2-fluoropyridin-4-yl)-1H-inden-3-yl)ethyl)-4-methylpiperazine maleate] | 29
14 | C1=C(CCN2CCOCC2)c2cccc(-c3cccnc3)c2C1 [Compound 34, 4-(2-(7-(pyridin-3-yl)-1H-inden-3-yl)ethyl)morpholine maleate] | 82
15 | CN1CCN(CCC2=CCc3c2cccc3-c2cccnc2)CC1 [Compound 35, 1-methyl-4-(2-(7-(pyridin-3-yl)-1H-inden-3-yl)ethyl)piperazine maleate] | 61
16 | COc1ccc(-c2cccc3c2CC=C3CCN2CCN(C)CC2)cn1 [Compound 36, 1-(2-(7-(6-methoxypyridin-3-yl)-1H-inden-3-yl)ethyl)-4-methylpiperazine maleate] | 37
17 | CN1CCN(CCC2=CCc3c2cccc3-c2ccc(F)nc2)CC1 [Compound 37, 1-(2-(7-(6-fluoropyridin-3-yl)-1H-inden-3-yl)ethyl)-4-methylpiperazine maleate] | 34
18 | CN1CCN(CCC2=CCc3c2cccc3-c2ccnn2C)CC1 [Compound 38, 1-methyl-4-(2-(7-(1-methyl-1H-pyrazol-5-yl)-1H-inden-3-yl)ethyl)piperazine maleate] | 30
19 | COc1ccc(-c2cccc3c2CC=C3CCN2CCOCC2)cn1 [Compound 39, 4-(2-(7-(6-methoxypyridin-3-yl)-1H-inden-3-yl)ethyl)morpholine maleate] | 180
20 | CN1CCN(CCC2=CCc3cc(-c4ccncc4)ccc32)CC1 [Compound 40, 1-methyl-4-(2-(6-pyridin-4-yl)-1H-inden-3-yl)ethyl)piperazine maleate] | 143
21 | CN1CCN(CCC2=CCc3cc(-c4ccnc(F)c4)ccc32)CC1 [Compound 41, 1-(2-(6-(2-fluoropyridin-4-yl)-1H-inden-3-yl)ethyl)-4-methylpiperazine maleate] | 120

Further compounds by falling Ki, results first:

Row | Ki [nM] | Structure (SMILES)
22 | 29 | CN1CCCN(CCC2=CCc3c2cccc3-c2ccncc2)CC1 [Compound 31, 1-methyl-4-(2-(7-(pyridin-4-yl)-1H-inden-3-yl)ethyl)-1,4-diazepane maleate]
23 | 26 | CN1CCN(CCC2=CCc3c2cccc3-c2ccncc2)CC1 [Compound 30, 1-methyl-4-(2-(7-(pyridin-4-yl)-1H-inden-3-yl)ethyl)piperazine maleate]
24 | 25 | CN1CCN(CCC2=CCc3c2cccc3-c2ccc(Cl)c(Cl)c2)CC1 [Compound 20, 1-(2-(7-(3,4-dichlorophenyl)-1H-inden-3-yl)ethyl)-4-methylpiperazine maleate]
25 | 24 | CN1CCN(CCC2=CCc3c2cccc3-c2ccncc2F)CC1 [Compound 4, 1-(2-(7-(3-fluoropyridin-4-yl)-1H-inden-3-yl)ethyl)-4-methylpiperazine maleate]
26 | 24 | Fc1ccc(-c2cccc3c2CC=C3CCN2CCN(c3ccccc3)CC2)cc1 [Compound 14, 1-(2-(7-(4-fluorophenyl)-1H-inden-3-yl)ethyl)-4-phenylpiperazine maleate]
27 | 14 | CN1CCN(CCC2=CCc3c2cccc3-c2cccc(F)c2)CC1 [Compound 17, 1-(2-(7-(3-fluorophenyl)-1H-inden-3-yl)ethyl)-4-methylpiperazine maleate]
28 | 13 | CN1CCN(CCC2=CCc3c2cccc3-c2ccccc2)CC1 [Compound 5, 1-methyl-4-(2-(7-phenyl-1H-inden-3-yl)ethyl)piperazine maleate]
29 | 13 | C1=C(CCN2CCC(c3ccccc3)CC2)c2cccc(-c3ccccc3)c2C1 [Compound 10, 4-phenyl-1-(2-(7-phenyl-1H-inden-3-yl)ethyl)piperidine maleate]
30 | 12 | Fc1ccc(-c2cccc3c2CC=C3CCN2CCCCCC2)cc1 [Compound 2, 1-(2-(7-(4-fluorophenyl)-1H-inden-3-yl)ethyl)azepane hydrochloride]
31 | 12 | CN1CCN(CCC2=CCc3c2cccc3-c2ccc(F)cc2)CC1 [Compound 16, 1-(2-(7-(4-fluorophenyl)-1H-inden-3-yl)ethyl)-4-methylpiperazine maleate]
32 | 12 | Clc1ccc(-c2cccc3c2CC=C3CCN2CCOCC2)cc1Cl [Compound 19, 4-(2-(7-(3,4-dichlorophenyl)-1H-inden-3-yl)ethyl)morpholine maleate]
33 | 8 | Fc1ccc(-c2cccc3c2CC=C3CCN2CCCCC2)cc1 [Compound 15, 1-(2-(7-(4-fluorophenyl)-1H-inden-3-yl)ethyl)piperidine maleate]
34 | 7 | C1=C(CCN2CCCCC2)c2cccc(-c3ccccc3)c2C1 [Compound 8, 1-(2-(7-phenyl-1H-inden-3-yl)ethyl)piperidine maleate]
35 | 7 | C1=C(CCN2CCCCCC2)c2cccc(-c3ccccc3)c2C1 [Compound 9, 1-(2-(7-phenyl-1H-inden-3-yl)ethyl)azepane maleate]
36 | 7 | CN1CCN(CCC2=CCc3c2cccc3-c2ccsc2)CC1 [Compound 26, 1-methyl-4-(2-(7-(thiophen-3-yl)-1H-inden-3-yl)ethyl)piperazine maleate]
37 | 6 | C1=C(CCN2CCOCC2)c2cccc(-c3ccsc3)c2C1 [Compound 25, 4-(2-(7-(thiophen-3-yl)-1H-inden-3-yl)ethyl)morpholine maleate]
38 | 4 | Fc1cccc(-c2cccc3c2CC=C3CCN2CCOCC2)c1 [Compound 18, 4-(2-(7-(3-fluorophenyl)-1H-inden-3-yl)ethyl)morpholine maleate]
